Measurements: US11248019B2, “Trityl-mono-GalNAc compounds and their use” (Hoffmann-La Roche Inc., priority 2016, dated 2022)

Key:
[1] = test system: ApoB mRNA; assay: ApoB mRNA knockdown in liver and kidney by qPCR, single sc dose, sacrifice day 10 (Example 4); assay type: in vivo, C57BL6/J mice; settings: 0.25 mg/kg single sc dose
Experimental: (§1) Female C57BL6/J mice (5/group appr. 20 g at arrival) were injected subcutaneous (sc) with a single dose saline or 0.25 mg/kg unconjugated LNA-antisense oligonucleotide (compound F) or with 0.25 mg/kg or 0.1 mg/kg of GalNAc conjugated LNA antisense oligonucleotide (Compound C or E of the invention or reference compound G). Blood samples of 50 μl were collected pre-dosing at day minus 6, and post dosing at day 3 and 7. The animals were sacrificed at day 10 and total serum was collected as well as liver and kidney.
(§2) ApoB mRNA knockdown was analyzed by qPCR. In brief, RNA was isolated from homogenized liver and kidney using MagnaPure RNA Isolation and purification system (catalog #03604721001 and #05467535001; Roche) according to the manufacturer's instructions. RT-QPCR was done using Taqman Fast Universal PCR Master Mix 2×(Applied Biosystems Cat #4364103) and Taqman gene expression assay (mApoB, Mn01545150_m1 and mGAPDH #4352339E) following the manufacturers protocol.

[2] = Oligonucleotide content in liver and kidney by ELISA (Example 4); assay type: in vivo, C57BL6/J mice; settings: 0.25 mg/kg single sc dose, day 10
Experimental: as §1
The oligonucleotide content in the liver and kidney was measured using ELISA (see for example Straarup et al 2010 Nucleic Acid Res Vol 38 pp 7100-7111), results are shown in Table 6.

[3] = test system: ApoB mRNA; assay: ApoB mRNA knockdown in liver and kidney by qPCR, single iv dose, sacrifice day 3 (Example 6); assay type: in vivo, C57BL6/J mice
Experimental: as §2
(§3) Female C57BL6/J mice (5/group appr. 20 g at arrival) were injected intravenous (iv) with a single dose saline, 0.22 mg/kg, 0.45 mg/kg or 0.89 mg/kg, of GalNAc conjugated LNA antisense oligonucleotide (Compound H, I or J of the invention) or the naked reference compound F. Blood samples of 50 μl were collected pre-dosing at day minus 6. The animals were sacrificed at day 3. Total serum was collected as well as liver and kidney.

[4] = Oligonucleotide content in liver and kidney by ELISA (Example 6); assay type: in vivo, C57BL6/J mice; settings: for Oligonucleotide content in kidney tissue / Oligonucleotide content in liver tissue: day 3
Experimental: as §3
The oligonucleotide content in the liver and kidney was measured using ELISA (see for example Straarup et al 2010 Nucleic Acid Res Vol 38 pp 7100-7111), results are shown in Table 11A and 11B.

[5] = test system: total cholesterol in serum; assay: Total cholesterol in serum (Example 6); assay type: in vivo, C57BL6/J mice; settings: day 3
Experimental: as §3
Total cholesterol in serum was measured using ABX Pentra Cholesterol CP (Triolab, Brondby, Denmark) according to the manufacturer's instructions.

[6] = ALT in serum (Example 6); assay type: in vivo, C57BL6/J mice
Experimental: as §3
ALT (Alanine aminotransferase) was measured using ABX Pentra ALT CP reagent (A11A01627 Triolab, Brondby, Denmark. The results are shown in Table 13.

[7] = test system: ApoB mRNA; assay: ApoB mRNA knock down in primary mouse hepatocytes, qPCR (Example 9); assay type: cell-based, C57BL/6J female mice; settings: n = 2
Experimental: Primary mouse hepatocytes were isolated from C57BL/6J female mice. The mice were anesthesized and the liver was perfused at a flow rate of 7 ml per min through the vena cava using Hank's balanced salt solution containing 15 mM Hepes and 0.38 mM EGTA for 5 min followed by collagenase solution (Hank's balanced salt solution containing 0.17 mg/ml Collagenase type 2 (Worthington 4176), 0.03% BSA, 3.2 mM CaCl2 and 1.6 g/I NaHCO3) for 12 min. Following perfusion, the liver was removed and the liver capsule was opened, the liver suspension was filtered through 70 μm cell strainer using William E medium. The cell suspension was centrifuged for 3 min at 50×g. Viable hepatocytes were further enriched by gradient centrifugation with 45% Percoll (Sigma cat. No. P4937) for 10 min at 50×g. The pellet was washed and resuspended in 25 ml William E medium (Sigma cat. no. W1878 complemented with 1×Pen/Strep, 2 mM L-glutamine and 10% FBS (ATCC #30-2030)), and seeded at 25.000 cells per well in collagen coated 96 well plates. After 3 hours the medium was exchanged and the oligonucleotides were added using 3 fold dilutions from […]. Two different incubation regimens were used, one where the cells were incubated 4 hours with oligonucleotide following a medium exchange and continued incubation to a total of 72 hours. […]

[8] = test system: primary mouse hepatocytes; assay: Oligonucleotide content in primary mouse hepatocyte culture by ELISA (Example 9); assay type: in vitro ADME, C57BL/6J female mice
Experimental: Primary mouse hepatocytes were isolated from C57BL/6J female mice. The mice were anesthesized and the liver was perfused at a flow rate of 7 ml per min through the vena cava using Hank's balanced salt solution containing 15 mM Hepes and 0.38 mM EGTA for 5 min followed by collagenase solution (Hank's balanced salt solution containing 0.17 mg/ml Collagenase type 2 (Worthington 4176), 0.03% BSA, 3.2 mM CaCl2 and 1.6 g/I NaHCO3) for 12 min. Following perfusion, the liver was removed and the liver capsule was opened, the liver suspension was filtered through 70 μm cell strainer using William E medium. The cell suspension was centrifuged for 3 min at 50×g. Viable hepatocytes were further enriched by gradient centrifugation with 45% Percoll (Sigma cat. No. P4937) for 10 min at 50×g. The pellet was washed and resuspended in 25 ml William E medium (Sigma cat. no. W1878 complemented with 1×Pen/Strep, 2 mM L-glutamine and 10% FBS (ATCC #30-2030)), and seeded at 25.000 cells per well in collagen coated 96 well plates. […] Two different incubation regimens were used, one where the cells were incubated 4 hours with oligonucleotide following a medium exchange and continued incubation to a total of 72 hours. In the second regimen the cells were incubated for 72 hours with the oligonucleotides.
Oligonucleotide content analysis was performed using ELISA (see for example Straarup et al 2010 Nucleic Acid Res Vol 38 pp 7100-7111), results are shown in table 20 and 21 below.

[9] = test system: ApoB mRNA; assay: ApoB mRNA knockdown in liver and kidney by qPCR, single iv dose 0.1 mg/kg, day 7 or 14 (Example 7); assay type: in vivo, C57BL6/J mice; settings: 0.1 mg/kg single iv dose
Experimental: as §2
(§4) Female C57BL6/J mice (5/group appr. 20 g at arrival) were injected intravenous (iv) with a single dose saline or 0.1 mg/kg of GalNAc conjugated LNA antisense oligonucleotide (Compound J, K, L, B or C of the invention or reference compound M). Blood samples of 50 μl were collected pre-dosing at day minus 6, and post dosing at day 3, 7, 10 and 14. The animals were sacrificed at day 7 or 14 and total serum was collected as well as liver and kidney.
ApoB mRNA knock down was measured as described in example 4.

[10] = Oligonucleotide content in liver and kidney by ELISA (Example 7); assay type: in vivo, C57BL6/J mice; settings: 0.1 mg/kg single iv dose
Experimental: as §4
The oligonucleotide content in the liver and kidney was measured using ELISA (see for example Straarup et al 2010 Nucleic Acid Res Vol 38 pp 7100-7111), results are shown in Table 16.

[11] = ALT in serum (Example 7); assay type: in vivo, C57BL6/J mice; settings: 0.1 mg/kg single iv dose
Experimental: as §4
ALT (Alanine aminotransferase) was measured using ABX Pentra ALT CP reagent (A11A01627 Triolab, Brondby, Denmark. The results are shown in table 17.

Substance | ApoB mRNA expression as % of saline in kidney ([3]; 0.22 mg/kg single iv dose) | ApoB mRNA/mGAPDH expression as % of saline in liver ([3]; 0.22 mg/kg single iv dose) | ApoB mRNA expression as % of saline in kidney ([3]; 0.45 mg/kg single iv dose) | ApoB mRNA/mGAPDH expression as % of saline in liver ([3]; 0.45 mg/kg single iv dose) | ApoB mRNA expression as % of saline in kidney ([3]; 0.89 mg/kg single iv dose) | ApoB mRNA/mGAPDH expression as % of saline in liver ([3]; 0.89 mg/kg single iv dose) | Oligonucleotide content in kidney tissue ([4]; 0.22 mg/kg single iv dose) [µg/g] | Oligonucleotide content in liver tissue ([4]; 0.22 mg/kg single iv dose) [µg/g] | Oligonucleotide content in kidney tissue ([4]; 0.45 mg/kg single iv dose) [µg/g] | Oligonucleotide content in liver tissue ([4]; 0.45 mg/kg single iv dose) [µg/g] | Oligonucleotide content in kidney tissue ([4]; 0.89 mg/kg single iv dose) [µg/g] | Oligonucleotide content in liver tissue ([4]; 0.89 mg/kg single iv dose) [µg/g] | serum cholesterol percent of saline ([5]; 0.22 mg/kg single iv dose) | serum cholesterol percent of saline ([5]; 0.45 mg/kg single iv dose) | serum cholesterol percent of saline ([5]; 0.89 mg/kg single iv dose) | ALT levels (U/L) in serum at day 3 as % of saline ([6]; 0.22 mg/kg single iv dose) | ALT levels (U/L) in serum at day 3 as % of saline ([6]; 0.45 mg/kg single iv dose) | ALT levels (U/L) in serum at day 3 as % of saline ([6]; 0.89 mg/kg single iv dose) | other results
5′-GS^mCSaStStSgSgStSaStSTS^mCSA-3′ [Compound F, reference compound] | 68.0 % of saline | 87.5 % of saline | 51.1 % of saline | 90.2 % of saline | 29.0 % of saline | 53.8 % of saline | 0.337 | 0.059 | 0.506 | 0.173 | 1.050 | 0.470 | 104.3% of saline | 86.8% of saline | 66.9% of saline | 91 % of saline | 151 % of saline | 217 % of saline | ApoB mRNA expression as % of saline, mRNA kidney ([1]; day 10, kidney): 24.7 % of saline; ApoB mRNA expression as % of saline, mRNA liver ([1]; day 10, liver): 74.5 % of saline; Oligonucleotide content, Kidney [2]: 1.370 μg/g tissue; Oligonucleotide content, Liver [2]: 0.028 μg/g tissue; IC50 ([7]; 4 h pulse/72 h total incubation): 2620 nM; IC50 ([7]; 72 h oligonucleotide treatment): 331 nM; oligonucleotide content in the cell culture ([8]; 4 h pulse, 72 hours total incubation, 1 μM): 0.1 pmol/μg protein; oligonucleotide content in the cell culture ([8]; 4 h pulse, 72 hours total incubation, 3 μM): 0.4 pmol/μg protein; oligonucleotide content in the cell culture ([8]; 4 h pulse, 72 hours total incubation, 9 μM): 1.0 pmol/μg protein; oligonucleotide content in the cell culture ([8]; 4 h pulse, 72 hours total incubation, 27 μM): 1.4+/−0.2 pmol/μg protein; oligonucleotide content in the cell culture ([8]; 72 h oligonucleotide treatment, 0.11 μM): 0.5 pmol/μg protein; oligonucleotide content in the cell culture ([8]; 72 h oligonucleotide treatment, 0.33 μM): 1.5 pmol/μg protein; oligonucleotide content in the cell culture ([8]; 72 h oligonucleotide treatment, 1 μM): 7.9 pmol/μg protein; oligonucleotide content in the cell culture ([8]; 72 h oligonucleotide treatment, 3 μM): 14.5 pmol/μg protein; oligonucleotide content in the cell culture ([8]; 72 h oligonucleotide treatment, 9 μM): 34.1 pmol/μg protein; oligonucleotide content in the cell culture ([8]; 72 h oligonucleotide treatment, 27 μM): 34.2+/−0.7 pmol/μg protein
5′-GS^mCSaStStSgSgStSaStSTS^mCSA-3′ [Compound J] | 117.0 % of saline | 12.8 % of saline | 90.7 % of saline | 6.3 % of saline | 64.1 % of saline | 3.0 % of saline | 0.169 | 0.313 | 0.549 | 0.710 | 1.040 | 1.478 | 37.3% of saline | 21.5% of saline | 10.0% of saline | 101 % of saline | 201 % of saline | 1558 % of saline | ApoB knock down in the liver ([3]; in words, single iv dose): improved ApoB knock down in the liver; liver to kidney ratio compared to unconjugated (naked) oligonucleotide (compound F) ([4]; in words, tables 9 to 11): improved liver to kidney ratio; serum cholesterol reduction ([5]; in words, single iv dose): serum cholesterol reduction; ALT levels ([6]; in words, highest dose (0.89 mg/kg)): some animals showed increase ALT levels; ApoB mRNA/mGAPDH expression as % of saline, Avg kidney ([9]; Day 7, kidney): 83.9 % of saline; ApoB mRNA/mGAPDH expression as % of saline, Avg liver ([9]; Day 7, liver): 56.0 % of saline; ApoB mRNA/mGAPDH expression as % of saline, Avg kidney ([9]; Day 14, kidney): 96.8 % of saline; ApoB mRNA/mGAPDH expression as % of saline, Avg liver ([9]; Day 14, liver): 107.6 % of saline; Oligonucleotide content, Avg kidney ([10]; Day 7, kidney tissue): 0.153 µg/g; Oligonucleotide content, Avg liver ([10]; Day 7, liver tissue): 0.276 µg/g; Oligonucleotide content, Avg kidney ([10]; Day 14, kidney tissue): 0.079 µg/g; Oligonucleotide content, Avg liver ([10]; Day 14, liver tissue): 0.163 µg/g; ALT levels (U/L) in serum as % of saline ([11]; Day 7): 128.6 % of saline; ALT levels (U/L) in serum as % of saline ([11]; Day 14): 126.1 % of saline
